Source: US5817756A, “Pseudo- and non-peptide bradykinin receptor antagonists” (Scios Inc., priority 1995, dated 1998)

Assays:
[1] = target: T1, human bradykinin B2 receptor (Homo sapiens, UniProt P30411); experiment: Radioligand binding, H2O.2 cell membranes, 3H-NPC17731; conditions: Table 2; 3H-NPC17731; read-out: Radioligand Binding, Ki Human 3H17731
T1 construct: The HindIII/XbaI fragment of one full-length clone, 126A, was inserted into pcDNAI neo vector; expressed in transfected cells
T1 sequence (P30411 1-391): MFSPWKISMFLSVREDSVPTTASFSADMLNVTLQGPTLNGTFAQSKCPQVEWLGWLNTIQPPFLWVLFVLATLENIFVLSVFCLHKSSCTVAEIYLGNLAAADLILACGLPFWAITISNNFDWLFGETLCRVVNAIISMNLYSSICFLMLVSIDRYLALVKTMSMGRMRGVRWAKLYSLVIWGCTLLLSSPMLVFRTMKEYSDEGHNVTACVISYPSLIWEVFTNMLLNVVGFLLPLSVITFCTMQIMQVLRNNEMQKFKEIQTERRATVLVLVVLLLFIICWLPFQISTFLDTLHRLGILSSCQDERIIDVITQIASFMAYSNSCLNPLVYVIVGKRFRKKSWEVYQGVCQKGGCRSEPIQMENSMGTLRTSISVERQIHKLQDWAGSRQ
Method: (§1) A human bradykinin B2 receptor was expressed in CHO/K cells. Briefly, approximately 2×10^6 plaques from a human uterus λgt10 cDNA library (Clontech Laboratories; Palo Alto, Calif.) were screened using a PCR fragment containing the coding region of the rat B2 receptor. This probe was generated by random-primed synthesis in the presence of α[^32 P]dATP. Duplicate filters were hybridized overnight at 42° C. in 1M NaCl, 50 mM Tris pH 7.5, 5× Denhardt's, 200 μg/ml salmon sperm DNA, 1% SDS, and 20% formamide. The filters were washed at 65° C. in 1× SSC and 1% SDS. Coincident positively hybridizing plaques were purified and rescreened with the same probe and stringency conditions. EcoRI fragments of positive clones were inserted into Bluescript/KS II+vector (Stratagene; La Jolla, Calif.) for sequence determination.
(§2) The nucleotide sequence of the cloned human B2 receptors was determined using double-stranded DNA and the dideoxy chain termination method. Commercially available T3 and T7 oligonucleotides (USB; Cleveland, Ohio) and synthetic 21-mer oligonucleotides (DNA/RNA Synthesizer; applied Biosystems Inc.; Palo Alto, Calif.) from both the known rat sequence and the determined human sequence were used to identify the nucleotide sequence from the 5' untranslated end to the BglII site in the 3' untranslated end of the clone.
(§3) CHO/K cells were plated in 2 ml of growth medium (Ham's F12 with 10% FBS) per 6 well plate and incubated at 37° C., 5% CO2 until they were 60% confluent. For each well, 4, 12, and 16 μg of DNA was diluted in 100 μl Opti-MEM I reduced serum medium (Gibco/BRL; Gaithersburg, Md.). 12 μl of TransfectASE reagent (Gibco/BRL) was diluted in a separate aliquot of 100 μl Opti-MEM I. The DNA and TransfecASE solutions were combined, mixed gently, and incubated at 25° C. for 15 minutes. This solution was then diluted to 1 ml with Opti-MEM I. Each well was washed twice with Opti-MEM I and 1 ml of the DNA/TransfectAse complex was added to each well. After a 5 hour incubation at 37° C. and 5% CO2, 1 ml of Ham's F12 with 20% FBS was added to each well and cells were incubated overnight. Media was replaced with growth medium and incubated for additional 24 hours.
(§4) This assay measures the ability of a bradykinin antagonist compound to compete for binding to the human B2 receptor with tritiated bradykinin or tritiated NPC17731, a bradykinin analog which is known to bind the B2 receptor and act as a bradykinin antagonist.
(§5) H2O.2 cells were grown to confluency in Ham's F12 media containing 10% FBS and 500 μg/ml Geneticin. Growth media was aspirated and the monolayer washed once with Dulbecco's PBS without Ca^++ and Mg^++. Cells were scraped in Dulbecco's PBS and centrifuged at 2,000×g for 10 minutes. Pellets were resuspended in 25 mM TES, 1 mM 1,10-phenanthroline pH 6.8 buffer and homogenized using a Ploytron at setting 5 for 10 seconds. An aliquot was taken for a protein determination using a BioRad protein assay kit. Membranes were centrifuged at 48,000×g for 10 minutes at 4° C. Pellets were resuspended in the TES buffer with 0.1% BSA and 0.014% bacitracin. 0.5 ml aliquots were frozen in liquid N2 and stored at -80° C. for up to 2 weeks.
(§6) Membranes from H2O.2 cells previously prepared were thawed at 37° C. and diluted in 25 mM TES, […] 1,10-phenanthroline pH 6.8 containing BSA and bactiracin. […] Non-specific binding was determined with 1 μM bradykinin. The tubes were incubated 90 minutes at 25° C. and the assay was terminated by rapid vacuum filtration onto Whatman GF/B filters presoaked with 0.2% PEI for 3 hours followed by 2×3 ml aliquots of ice-cold 50 mM Tris, pH 7.4. Radioactivity was counted with a Beckman scintillation counter.

[2] = target: T1, human bradykinin B2 receptor; experiment: Radioligand binding, H2O.2 cell membranes, 3H-bradykinin; conditions: Table 2, read-out: Radioligand Binding, Ki Human 3HBK
Method: as §1, §2, §3, §4, §5, §6

human B2 receptor = target: T2, human B2 receptor (Homo sapiens, UniProt P30411); experiment: Whole cell binding assay, 3H-bradykinin; conditions: Table 2, whole cells, read-out: Radioligand Binding, Ki Whole Cell 3HBK
T2 construct: The HindIII/XbaI fragment of one full-length clone, 126A, was inserted into pcDNAI neo vector; expressed in transfected cells
T2 sequence (P30411 1-391): T1 sequence (P30411 1-391)
Method: Binding to confluent monolayers of transfected cells expressing the human B2 receptor (7,000 fmol/receptor/mg) grown in 24-well plates was measured by incubating cells in 1 ml cell binding buffer (PBS/Ca/Mg, 1% BSA, 0.14 mg/ml bacitracin) containing 10^-10 M ^3 H-bradykinin and various concentrations of unlabeled analogs for 4 to 10 hours at 4° C. Cells were washed three times with cell binding buffer and lysed in 0.1N NaOH. An aliquot of the lysate was counted to measure radioactivity bound.

N=C(N)NCCC[C@@H](N)C(=O)N[C@@H](CCCNC(=N)N)C(=O)N1CCC2(CC1)C(=O)N(CC(=O)N1CCc3c(n(CC(=O)N[C@@H](CCCNC(=N)N)C(=O)O)c4ccccc34)C1)CN2c1ccccc1 [Compound 2]
Ki [1]: 0.094 µM | Ki [2]: 1.8 µM | Ki (human B2 receptor): 10.4 µM
